Like-named read-outs stand apart in the source and are kept apart here.
How the values were obtained:
[1] = tested on: Amaranthus retroflexus (pigweed); assay: Enhancement of herbicide activity: pre-emergence Amaranthus kill with metribuzin; format: in vivo; settings: for pest or weed control at 100 g/ha: Amaranthus retroflexus
Method: Specifically, Amaranthus retroflexus (pigweed) was treated pre-emergence with metribuzin alone or in combination with an enhancer compound disclosed herein. Fifteen seeds of Amaranthus retroflexus were sown in soil in each pot and then sprayed with a mixture of metribuzin at the appropriate rate shown in Table 5 and the compound of this invention at 100 g/ha using a track sprayer at a water volume of 200 L/hectare. Small amounts of acetone were used to aid solubility. The pots were watered immediately after sowing and treatment and then allowed to stand in a glasshouse. Assessment of kill was made seven and fourteen days after treatment. The test included four replicates for each treatment and the control.

[2] = tested on: Brown Rust (Puccinia recondita) on wheat; assay: Greenhouse crop test: control of Brown Rust on wheat in combination with commercial fungicides; format: in vivo; settings: wheat JB Diego, inoculated 24 hours after treatment, evaluated at fourteen days
Method: In this method, exemplary compounds were evaluated for their ability to control Brown Rust (Puccinia recondita) on wheat in a controlled greenhouse environment in combination with one of four fungicides, Amistar, Imtrex, Proline or Balaya. In these studies, wheat plants (JB Diego) were used. Seeds were sown in 9 cm diameter pots to a depth of 1 to 2 cm using Petersfield potting compost (75% medium grade peat, 12% screened sterilized loam, 3% medium grade vermiculite, 10% grit (5 mm screened, lime free), 1.5 kg PG mix per m3, lime to pH5.5-6.0 and wetting agent (Vitax Ultrawet 200 ml per m3) and germinated/grown at 23 C under a 16 h day/8 h night light regime. Plants were treated two to three weeks after sowing when they were at the BBCH 11 growth stage ([…]). Wheat plants were inoculated with Puccinia triticina (Brown rust) 24 hours after treatment. A track sprayer was used to treat the plants with the mixture of commercial fungicide and test compound using a water volume of 200 L/ha. Four replicates were used for each combination of fungicide, pathogen and test compound. Each plant was evaluated at fourteen days (once the disease symptoms were fully expressed) for % control of the disease. Appropriate controls were used for all experiments, including an ‘inoculation check’ wherein plants were inoculated with their specific pathogen to assess disease levels. Also, each commercial fungicide was tested on its own as a part of each treatment, this being benchmark against which the experimental compounds were evaluated. […] That is, the present compounds, although not fungicidal by themselves, enhance the activity of fungicides, thus the enhancer compounds work synergistically in combination with fungicides to control disease. • Amistar (0.04 L/ha) • Imtrex (0.45 L/ha) • Proline (0.15 L/ha) • Balaya (0.25 L/ha)

apyrase = assay: Apyrase inhibition assay (screen for apyrase inhibitors, phosphate release read at 630 nm); format: biochemical; settings: inhibitor conc at 1 mM (10 μl added), 3 mM ATP, pH 6.5, room temperature 1 hr
[3] = tested on: strain of Zymoseptoria tritici with a reduced susceptibility to strobilurin fungicides; assay: In vitro assessment of combination activity with fungicides, pathogen growing on agar; format: cell-based; settings: in combination with azoxystrobin, fluxapyroxad or desthio prothioconazole
Method: (§1) Selected compounds are assessed in combination with fungicides against a range of commercially important plant pathogenic fungi.
(§2) The test is conducted as follows. A fungicide is applied to a fungal plant pathogen at a rate slightly below that at which it gave any control, in combination with a suitable dose of the test compound. The test compounds are recorded as active if control of the pathogen was observed.
(§3) In more detail, the test is conducted as follows. For each combination of fungicide, pathogen and test compound, the following wells are used. Well 1 contains a fungal pathogen growing on agar, and a fungicide at a rate just below that at which it gave any control of the pathogen. Well 2 is the same as Well 1, except that the test compound is also added at Rate 1. Well 3 is the same as Well 2, except that the test compound is added at Rate 2, where Rate 2 is higher than Rate 1. Finally, as a benchmark, Well 4 is the same as Well 1, except that it contained the fungicide at a higher rate, at which it gave partial control of the pathogen. Each of the Wells 1 to 4 are run in duplicate, giving a total of 8 wells for each combination of fungicide, pathogen and test compound. For each well, after a suitable period of incubation, a visual assessment of the % control of the pathogen by the fungicide is made.
(§4) The following fungicides are used in this assay: azoxystrobin, fluxapyroxad, and desthio prothioconazole. The following fungal pathogens are used in this assay: First, a strain of Zymoseptoria tritici with a reduced susceptibility to strobilurin fungicides; second a strain of Zymoseptoria tritici with a reduced susceptibility to SDHI fungicides (i.e., those that inhibit succinate dehydrogenase); and third, Microdochium nivale. […] In contrast, compounds of the present disclosure are effective in the combination assay, enhancing fungicidal activity of one or more fungicides against at least one strain.

[4] = tested on: strain of Zymoseptoria tritici with a reduced susceptibility to SDHI fungicides; assay: as above; format: cell-based; settings: in combination with azoxystrobin, fluxapyroxad or desthio prothioconazole
Method: as §1, §2, §3, §4

Microdochium nivale = assay: as above; format: cell-based; settings: in combination with azoxystrobin at a rate just below that giving control; visual % control
Method: as §1, §2, §3, §4

Row | Structure (SMILES) | pest or weed control at 100 g/ha ([1]; 168 h, read-out: Pre-Emergence Amaranthus Kill Percentage, Assessed 7 DAT, Metribuzin rate 50 g/ha) [%] | pest or weed control at 100 g/ha ([1]; 168 h, read-out: Pre-Emergence Amaranthus Kill Percentage, Assessed 7 DAT, Metribuzin rate 100 g/ha) [%] | pest or weed control at 100 g/ha ([1]; 168 h, read-out: Pre-Emergence Amaranthus Kill Percentage, Assessed 7 DAT, Metribuzin rate 200 g/ha) [%] | pest or weed control at 100 g/ha ([1]; 336 h, read-out: Pre-Emergence Amaranthus Kill Percentage, Assessed 14 DAT, Metribuzin rate 50 g/ha) [%] | pest or weed control at 100 g/ha ([1]; 336 h, read-out: Pre-Emergence Amaranthus Kill Percentage, Assessed 14 DAT, Metribuzin rate 100 g/ha) [%] | pest or weed control at 100 g/ha ([1]; 336 h, read-out: Pre-Emergence Amaranthus Kill Percentage, Assessed 14 DAT, Metribuzin rate 200 g/ha) [%] | enhancement of metribuzin herbicidal activity ([1]; compound at 100 g/ha with metribuzin, at seven and fourteen days) | Amistar (% control of the disease, compound + fungicide) ([2]; with Amistar 0.04 L/ha) [%] | Balaya (% control of the disease, compound + fungicide) ([2]; with Balaya 0.25 L/ha) [%] | Imtrex (% control of the disease, compound + fungicide) ([2]; with Imtrex 0.45 L/ha) [%] | Proline (% control of the disease, compound + fungicide) ([2]; with Proline 0.15 L/ha) [%] | Inhibition (apyrase) | enhancement of fungicide activity against Zymoseptoria tritici strain (reduced susceptibility to strobilurin fungicides) [3] | enhancement of fungicide activity against Zymoseptoria tritici strain (reduced susceptibility to SDHI fungicides) [4] | enhancing the activity of azoxystrobin against Microdochium nivale (Microdochium nivale)
1 | CCCc1ccc(S(=O)(=O)Nc2cccc(C)c2)cc1 [Compound A-62, 4-propyl-N-(m-tolyl)benzenesulfonamide] | 23.5 | 58.9 | 95.8 | 35.7 | 61 | 96 | significant enhancement | 71.7 | 21.7 | 38.8 | 1.4 | A (A is inhibition above 30%) |  |  | 
2 | O=C(Nc1cccc([N+](=O)[O-])c1)c1cccc(S(=O)(=O)Nc2ccc(Br)cc2)c1 [Roux Compound 13] |  |  |  |  |  |  |  |  |  |  |  |  | failing to enhance activity of any fungicide | failing to enhance activity of any fungicide | exhibited activity

— patent US20250275539A1, “APYRASE INHIBITORS” (Texas Crop Science, Inc., priority 2024, published 2025)
